Measured values from PubChem BioAssay AID248 (DTP/NCI, 2004).
Values joined by “and” are separate entries in the source; they are usually repeats but may differ in a detail not shown here. Equal values may be shown once. Inconclusive results and toxic doses are left out. No stated cut-off is given here; in the data, active means T/C of 150% or more; inactive means T/C below 125%.

Test system: L1210 leukemia ip in BDF1 mice, survival T/C
Assay: NCI In Vivo Anticancer Drug Screen. Data for tumor model L1210 Leukemia (intraperitoneal) in B6D2F1 (BDF1) mice
Settings: endpoint: mean survival time, higher = longer survival
How it was run: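 Mice bearing the transplanted tumor received compound or vehicle. Survival of the treated group was divided by that of the vehicle-treated control group to give the ratio.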

[1] = dose: 25.0 mg/kg/injection, schedule: Q01DX009 (ip), vehicle: saline
[2] = dose: 25.0 mg/kg/injection, schedule: Q04DX003 (ip), vehicle: saline
[3] = dose: 100.0 mg/kg/injection, schedule: Q01DX009 (ip), vehicle: saline
[4] = dose: 100.0 mg/kg/injection, schedule: Q04DX002 (ip), vehicle: saline with Tween-80
[5] = dose: 100.0 mg/kg/injection, schedule: Q04DX003 (ip), vehicle: saline
[6] = dose: 100.0 mg/kg/injection, schedule: Q01DX001 (ip), vehicle: saline
[7] = dose: 200.0 mg/kg/injection, schedule: Q01DX001 (ip), vehicle: saline
[8] = dose: 400.0 mg/kg/injection, schedule: Q01DX001 (ip), vehicle: saline
[9] = dose: 200.0 mg/kg/injection, schedule: Q01DX009 (ip), vehicle: saline
[10] = dose: 400.0 mg/kg/injection, schedule: Q01DX009 (ip), vehicle: saline
[11] = dose: 200.0 mg/kg/injection, schedule: Q04DX003 (ip), vehicle: saline
[12] = dose: 400.0 mg/kg/injection, schedule: Q04DX003 (ip), vehicle: saline
[13] = dose: 100.0 mg/kg/injection, schedule: Q01DX001 (ip), vehicle: Klucel (hydroxypropylcellulose) (HPC)
[14] = dose: 200.0 mg/kg/injection, schedule: Q01DX001 (ip), vehicle: Klucel (hydroxypropylcellulose) (HPC)
[15] = dose: 400.0 mg/kg/injection, schedule: Q01DX001 (ip), vehicle: Klucel (hydroxypropylcellulose) (HPC)
[16] = dose: 100.0 mg/kg/injection, schedule: Q01DX009 (ip), vehicle: saline with Tween-80
[17] = dose: 200.0 mg/kg/injection, schedule: Q01DX009 (ip), vehicle: saline with Tween-80
[18] = dose: 100.0 mg/kg/injection, schedule: Q04DX003 (ip), vehicle: Klucel (hydroxypropylcellulose) (HPC)
[19] = dose: 200.0 mg/kg/injection, schedule: Q04DX003 (ip), vehicle: Klucel (hydroxypropylcellulose) (HPC)
[20] = dose: 400.0 mg/kg/injection, schedule: Q04DX003 (ip), vehicle: Klucel (hydroxypropylcellulose) (HPC)
[21] = dose: 100.0 mg/kg/injection, schedule: Q04DX003 (ip), vehicle: saline with Tween-80
[22] = dose: 200.0 mg/kg/injection, schedule: Q04DX003 (ip), vehicle: saline with Tween-80
[23] = dose: 400.0 mg/kg/injection, schedule: Q04DX003 (ip), vehicle: saline with Tween-80
[24] = dose: 100.0 mg/kg/injection, schedule: Q01DX009 (ip), vehicle: Klucel (hydroxypropylcellulose) (HPC)
[25] = dose: 200.0 mg/kg/injection, schedule: Q01DX009 (ip), vehicle: Klucel (hydroxypropylcellulose) (HPC)

Measured: T/C

CN(C)CCC(=O)/C=C\c1ccccc1
inactive: [1] 91 % of control | dose: 25.0 mg/kg/injection, schedule: Q04DX002 (ip), vehicle: saline with Tween-80 105 % of control | [2] 89 % of control | dose: 50.0 mg/kg/injection, schedule: Q01DX009 (ip), vehicle: saline 88 % of control | dose: 50.0 mg/kg/injection, schedule: Q04DX002 (ip), vehicle: saline with Tween-80 98 % of control | dose: 50.0 mg/kg/injection, schedule: Q04DX003 (ip), vehicle: saline 90 % of control | [3] 88 % of control | [4] 88 % of control | [5] 89 % of control

CC(C)(C)CN=C(N)N
inactive: [6] 96 % of control | [7] 94 % of control | [8] 102 % of control

CCOC(=O)C1(C(C)=O)CC=CC1
inactive: [6] 100 % of control | [7] 104 % of control | [8] 100 % of control

CCOC(=O)C(CCc1ccccn1)C(C)=O (stereo not drawn)
inactive: [3] 97 % of control | [9] 107 % of control | [10] 102 % of control

O=C(O)C1C2C=CC(CC2)C1C(=O)O (stereo not drawn)
inactive: [5] 96 % of control | [11] 90 % of control | [12] 94 % of control

CCOC(=O)c1nc2c(C)nc(N)nc2[nH]c1=O
inactive: [13] 107 % of control | [14] 111 % of control | [15] 96 % of control

Clc1ccc2c(NCCc3cnc[nH]3)ccnc2c1
inactive: [16] 94 % of control | [17] 94 % of control

Clc1ccc2c(c1)C([P+](c1ccccc1)(c1ccccc1)c1ccccc1)c1cc(Cl)cc(Cl)c1-2 (stereo not drawn)
inactive: [13] 95 % of control | [18] 102 % of control | [14] 93 % of control | [19] 96 % of control | [15] 95 % of control | [20] 104 % of control

COc1ccc(/C=N\NC(=O)OC(C)(C)C)c(OC)c1OC
inactive: dose: 100.0 mg/kg/injection, schedule: Q01DX009 (ip), vehicle: acetone 104 % of control | [21] 105 % of control | dose: 200.0 mg/kg/injection, schedule: Q01DX009 (ip), vehicle: acetone 94 % of control | [22] 112 % of control | dose: 400.0 mg/kg/injection, schedule: Q01DX009 (ip), vehicle: acetone 96 % of control | [23] 112 % of control

NC(CCl)=NCC1CCCC1
inactive: dose: 12.5 mg/kg/injection, schedule: Q04DX002 (ip), vehicle: Klucel (hydroxypropylcellulose) (HPC) 96 % of control | dose: 25.0 mg/kg/injection, schedule: Q04DX002 (ip), vehicle: Klucel (hydroxypropylcellulose) (HPC) 96 % of control | dose: 50.0 mg/kg/injection, schedule: Q04DX002 (ip), vehicle: Klucel (hydroxypropylcellulose) (HPC) 96 % of control

CCN(CC)CCC1CCNCC1
inactive: dose: 6.25 mg/kg/injection, schedule: Q01DX009 (ip), vehicle: saline 101 % of control | dose: 12.5 mg/kg/injection, schedule: Q01DX009 (ip), vehicle: saline 95 % of control | dose: 12.5 mg/kg/injection, schedule: Q04DX003 (ip), vehicle: saline 100 % of control | [1] 98 % of control | [2] 96 % of control

Cc1ccc(/C=C\C(=O)OCCCCOC(=O)/C=C/c2ccc(C)cc2)cc1
inactive: dose: 50.0 mg/kg/injection, schedule: Q01DX001 (ip), vehicle: saline 97 % of control | [6] 95 % of control | [7] 91 % of control | [8] 95 % of control

C=CCC(CC)(C(=O)OCC)C(=O)OCC
inactive: [3] 107 % of control | [5] 102 % of control | [9] 98 % of control | [11] 113 % of control | [10] 95 % of control | [12] 96 % of control

CC(/C=C/c1ccccc1)=N\O
inactive: dose: 100.0 mg/kg/injection, schedule: Q01DX009 (ip), vehicle: saline sonified 91 % of control | dose: 200.0 mg/kg/injection, schedule: Q01DX009 (ip), vehicle: saline sonified 94 % of control | dose: 400.0 mg/kg/injection, schedule: Q01DX009 (ip), vehicle: saline sonified 100 % of control

CN(C)c1ccc(/C=C/c2ccc(N(C)C)cc2)cc1
inactive: [24] 98 % of control | [18] 98 % of control | [25] 102 % of control | [19] 94 % of control | dose: 400.0 mg/kg/injection, schedule: Q01DX009 (ip), vehicle: Klucel (hydroxypropylcellulose) (HPC) 93 % of control | [20] 100 % of control

CCCCCCCCCCCCNC(=O)C[n+]1cccc(C(N)=O)c1
inactive: [5] 96 % of control

CCOCCOCCOCCOc1ccc2c(c1)OCO2
inactive: dose: 100.0 mg/kg/injection, schedule: Q04DX002 (ip), vehicle: saline 95 % of control | dose: 200.0 mg/kg/injection, schedule: Q04DX002 (ip), vehicle: saline 88 % of control | dose: 400.0 mg/kg/injection, schedule: Q04DX002 (ip), vehicle: saline 107 % of control

CCOC(=O)C(CC(=O)O)=C1c2ccccc2-c2ccccc21
inactive: [13] 100 % of control | [24] 95 % of control and 102 % of control | dose: 100.0 mg/kg/injection, schedule: Q04DX002 (ip), vehicle: Klucel (hydroxypropylcellulose) (HPC) 95 % of control and 102 % of control | [14] 94 % of control | [25] 95 % of control and 96 % of control | dose: 200.0 mg/kg/injection, schedule: Q04DX002 (ip), vehicle: Klucel (hydroxypropylcellulose) (HPC) 96 % of control and 98 % of control

C/C(=C1\C(=O)Nc2ccccc21)c1ccco1
inactive: [21] 101 % of control | [22] 104 % of control | [23] 104 % of control

Cc1ccc(C)c(NC(=O)Nc2nccs2)c1
inactive: dose: 100.0 mg/kg/injection, schedule: Q01DX001 (ip), vehicle: saline with Tween-80 96 % of control | [16] 96 % of control and 97 % of control | [4] 96 % of control and 90 % of control | [21] 95 % of control | dose: 200.0 mg/kg/injection, schedule: Q01DX001 (ip), vehicle: saline with Tween-80 104 % of control | [17] 92 % of control and 93 % of control | dose: 200.0 mg/kg/injection, schedule: Q04DX002 (ip), vehicle: saline with Tween-80 93 % of control and 97 % of control | [22] 86 % of control | dose: 400.0 mg/kg/injection, schedule: Q01DX001 (ip), vehicle: saline with Tween-80 96 % of control | dose: 400.0 mg/kg/injection, schedule: Q01DX009 (ip), vehicle: saline with Tween-80 94 % of control and 96 % of control | dose: 400.0 mg/kg/injection, schedule: Q04DX002 (ip), vehicle: saline with Tween-80 100 % of control and 110 % of control | [23] 88 % of control

O=C(COc1ccccc1)Nc1cccc(C(=O)O)c1
inactive: [18] 104 % of control | [19] 93 % of control | [20] 109 % of control
